Literature values as cited in US20250177316A1, “Delayed-Release Granulates of Melatonin, Combinations Comprising Melatonin, Pharmaceutical Compositions and Dietary Supplements Containing Them, and Their Use in the Treatment of Insomnia and for the Reduction of the Time Required to Fall Asleep” (S.I.I.T. S.R.L. - SERVIZIO INTERNAZIONALE IMBALLAGGI …, priority 2022, published 2025).

Structure (SMILES)	pH of 5% solution in water
CC(O)C(=O)[O-].CC(O)C(=O)[O-].[Ca+2] (centres unmarked) [calcium lactate]	6-8
CC(O)C(=O)[O-].CC(O)C(=O)[O-].[Mg+2] (centres unmarked) [magnesium lactate]	6.5-8.5
